Data as given in ChEMBL document CHEMBL3867442, “Naphthalene Derivatives from the Roots of Pentas parvifolia and Pentas bussei” (2016).

Test: Cytotoxicity against human MDA-MB-231 cells after 72 hrs by alamar blue assay
Assay type: functional
Conditions: MDA-MB-231, 72 h, read-out: LD50 (the source's name)

Row | Structure (SMILES) | CC50
1 | COc1cc(C(=O)O)c(O)c2ccc3c(c12)C=CC(C)(CCC=C(C)C)O3 (stereo unspecified) [BUSSEIHYDROQUINONE C] | 48.4 µM
2 | CCO[C@@H]1O[C@H]2c3c(ccc4c(O)c(C(=O)O)cc(OC)c34)O[C@@]3(C)CC[C@@H]([C@H]1C)[C@@H]23 | 62.3 µM
3 | COc1cc(C(=O)O)c(O)c2ccc3c(c12)[C@@H]1O[C@@H](OC)[C@H](C)[C@@H]2CC[C@](C)(O3)[C@@H]21 | 130 µM
4 | COc1c(C)c(O)cc2c1C(=O)c1ccccc1C2=O | 54.4 µM
5 | COc1c(C=O)c(O)cc2c1C(=O)c1ccccc1C2=O [DAMNACANTHAL] | > 352 µM
6 | COC(=O)c1cc(OC)c2c(O)c(O)ccc2c1O | 96.5 µM
